This note sets out measurements from ChEMBL document CHEMBL2363022, “Malaria Box Schistosomiasis Screening Data” (2013).

Each structure is given as a SMILES string.

Assay [1] concerns Schistosoma mansoni. Kind of assay: MMV: Toxicity @ 5 uM to 4-5 Schistosoma mansoni adult males after 24 h on a scale of 0 (none) - 4 (most). Includes short descriptors of effects as judged visually (PMID:19597541). Only those Malaria box 'drug-like' cpds yielding the most severe phenotypes vs. somules were tested. Caffrey group UCSF. The class given is functional.
For assay [2], the system named is Schistosoma mansoni. The class given is functional. Further details: scale not given here.
Assay [3] relates to Schistosoma mansoni. Kind of assay: MMV: Motility assay. Percent change (relative to DMSO controls) @ 5 uM of movement of 4-5 Schistosoma mansoni adult males after 48 h as measured by the Consensus Voting Luminance Difference algorithm available on WormAssay (PMID:22303493). Occasional incongruence ocurrs between the motility scores and the visually adjudicated 'toxicity scores'. In these cases the 'toxicity score' should be prioritized. Only those Malaria box 'Drug-like' cpds yielding the most severe phenotypes vs. somules were tested. Caffrey group UCSF. The assay is classed as functional.

The test system of assay [4] is Schistosoma mansoni. The class given is functional. More on the design: scale not given here. This is another data set of the same source.
Assay [5] deals with Schistosoma mansoni. The class given is functional. More on the design: scale not given here. The source holds these as a separate data set.
Assay [6] relates to Schistosoma mansoni. Kind of assay: MMV: Motility assay. Percent change (relative to DMSO controls) @ 5 uM of movement of 4-5 Schistosoma mansoni adult males after 72 h as measured by the Consensus Voting Luminance Difference algorithm available on WormAssay (PMID:22303493). Occasional incongruence ocurrs between the motility scores and the visually adjudicated 'toxicity scores'. In these cases the 'toxicity score' should be prioritized. Only those Malaria box 'Drug-like' cpds yielding the most severe phenotypes vs. somules were tested. Caffrey group UCSF. The class given is functional.

Assay [7] relates to Schistosoma mansoni. Kind of assay: MMV: Motility assay. Percent change (relative to DMSO controls) @ 5 uM of movement of 4-5 Schistosoma mansoni adult males after 24 h as measured by the Consensus Voting Luminance Difference algorithm available on WormAssay (PMID:22303493). Occasional incongruence ocurrs between the motility scores and the visually adjudicated 'toxicity scores'. In these cases the 'toxicity score' should be prioritized. Only those Malaria box 'Drug-like' cpds yielding the most severe phenotypes vs. somules were tested. Caffrey group UCSF. The assay is classed as functional.

Assay [8] deals with Schistosoma mansoni. Kind of assay: MMV: Toxicity @ 5 uM to 4-5 Schistosoma mansoni adult males after 48 h on a scale of 0 (none) - 4 (most). Includes short descriptors of effects as judged visually (PMID:19597541). Only those Malaria box 'drug-like' cpds yielding the most severe phenotypes vs. somules were tested. Caffrey group UCSF. The assay is classed as functional.
Assay [9] relates to Schistosoma mansoni. Kind of assay: MMV: Toxicity @ 5 uM to 4-5 Schistosoma mansoni adult males after 72 h on a scale of 0 (none) - 4 (most). Includes short descriptors of effects as judged visually (PMID:19597541). Only those Malaria box 'drug-like' cpds yielding the most severe phenotypes vs. somules were tested. Caffrey group UCSF. The class given is functional.
Assay [10] deals with Schistosoma mansoni.

As for `Cl.OC(CNCc1ccccc1)Cn1c2ccccc2c2ccccc21` (stereo not drawn), the Toxicity in assay [1] was found to be 0; in assay [2], 4; in assay [4] it was 4; in [5], 4; in assay [8], 0; in assay [9], 0. Besides, the Motility in [3] was 49.4; in [6], “No effect”; in [7] it was 38.1.
As for `O=c1nc(C=Cc2ccc(Br)cc2)oc2ccccc12`, the Toxicity is 0 in assay [1]; 2 in assay [2]; 2 in assay [4]; 2 in assay [5]; 0 in [8]; 0 in assay [9]. The Motility in assay [3] was 98.7; in assay [6] it was “No effect”; in assay [7], 132.
Regarding `COc1ccc(Nc2nc(NCc3ccccc3)c3ccccc3n2)cc1`, the Toxicity in assay [1] worked out at 0; in assay [2], 2; in assay [4], 4; in assay [5], 4; in [8], 0; in [9], 0. Further, the Motility is 105.7 in assay [3], “No effect” in assay [6] and 100 in assay [7].
`COc1cccc(O)c1CN1CCC2(CCCN(Cc3ccc(F)cc3)C2)C1` (stereo not drawn): the Toxicity is given as 0 in assay [1]; 3 in assay [2]; 3 in [4]; 2 in assay [5]; 0 in assay [8]; 0 in assay [9]. Also, the Motility in assay [3] is on record as 133.2; in [6], 92.4; in assay [7] it was 168.1.
Regarding `OC(CNC1CCCC1)Cn1c2ccccc2c2ccccc21` (stereo not drawn), the Toxicity was found to be 0 in assay [1]; 1 in assay [2]; 4 in [4]; 4 in assay [5]; 0 in assay [8]; 0 in assay [9]. Also, the results for the Motility in assay [3], in assay [6] and in assay [7] were 83, “No effect” and “No effect”, respectively.
Take `CN(C)CCNc1cc(-c2ccccc2)nc2ccccc12`: the Toxicity in assay [1] is 1; in [2], 2; in [4], 1; in [5] it was 2; in [8], 0; in assay [9], 0. Moreover, the Motility in assay [3] was 68.3; in [6], “No effect”; in assay [7], 151.9.
In the case of `Br.CCN(CC)S(=O)(=O)c1ccc(-c2csc(Nc3ccc(C)c(C)c3)n2)cc1`, the Toxicity is on record as 2 in assay [1]; 2 in [2]; 2 in assay [4]; 2 in assay [5]; 2 in [8]; 4 in [9]. In addition, the Motility in [3] is 3.9; in assay [6] it was 2.5; in [7], 21.8.
As for `CC(C)OCc1cc(CN2CCN(c3cccc(Cl)c3)CC2)c(O)c2ncccc12`, the Toxicity worked out at 2 in assay [1]; 2 in assay [2]; 4 in assay [4]; 3 in assay [5]; 2 in [8]; 2 in [9]. The Motility in assay [3] is on record as 55.2; in assay [6], 59.8; in assay [7], 27.4.
With `CCOc1cc(Cl)c(C(C)NC(=O)c2cccc(OC)c2)cc1OCC` (stereo not drawn), the Toxicity in assay [2] was 1; in [4], 2; in assay [10], “No effect”.
As to `COc1ccc(CNC2CCN(c3ccc(NC(=O)c4cccc(Cl)c4)cc3)CC2)cc1OC`, the Toxicity in assay [1] is given as 0; in [2], 2; in assay [4] it was 4; in [5], 4; in [8] it was 0; in assay [9], 0. In addition, the results for the Motility in assay [3], in [6] and in assay [7] were 45.4, 49 and 104.8, respectively.
As for `Cc1cc(N2CCCC2)nc(Nc2ccc(NC(=O)CCc3ccccc3)cc2)n1`, the Toxicity in assay [1] stood at 2; in [2], 0; in assay [4], 4; in assay [5] it was 4; in assay [8], 3; in assay [9], 1. In addition, the Motility in assay [3] is recorded as 104.8; in assay [6], “Slow”; in assay [7], 28.9.
With `CC(C)(C)c1ccc(C(=O)Nc2nc3ccccc3s2)cc1`, the Toxicity is 0 in [1]; 2 in assay [2]; 0 in [4]; 0 in [5]; 0 in assay [8]; 0 in assay [9]. Also, the Motility in assay [3] was determined as 113.8; in assay [6] it was 118; in assay [7] it was 58.5.
For the molecule `CCN(CC)CCCNc1nc(-c2ccc(Cl)cc2)nc2ccccc12`, the Toxicity was determined as 0 in [1]; 2 in assay [2]; 4 in assay [4]; 4 in [5]; 0 in assay [8]; 0 in [9]. Besides, the Motility in assay [3] was found to be 99.5; in assay [6], 56; in assay [7] it was 86.7.
On to `Oc1ccccc1CN1CCC2(CCCN(Cc3ccccc3F)C2)C1` (stereo not drawn), for which the Toxicity worked out at 1 in assay [1]; 2 in [2]; 3 in assay [4]; 3 in [5]; 1 in assay [8]; 1 in assay [9]. The Motility in assay [3] is 150.6; in assay [6], “overactive”; in [7], 175.4.
As for `O=C(Nc1ccc(F)c(Cl)c1)Nc1ccc(Cl)c(Cl)c1`, the Toxicity in [1] is given as 2; in assay [2], 3; in assay [4], 4; in [5] it was 3; in [8], 4; in assay [9], 4. The figures for the Motility in assay [3], in assay [6] and in [7] were 3.2, 2.6 and 3.2, respectively.
On to `CCN(CC)CCn1c(=N)n(CC(O)c2ccc(Cl)c(Cl)c2)c2ccccc21.Cl` (stereo not drawn), for which the Toxicity in assay [1] was 0; in [2] it was 3; in [4] it was 4; in assay [5], 4; in [8] it was 1; in [9], 0. For the same molecule, the figures for the Motility in assay [3], in assay [6] and in assay [7] were 7.4, 66.9 and 68.1, respectively.
